Our source for the ED50 and EC50 values is ChEMBL document CHEMBL1149015, “New taxanes from Taxus brevifolia, 2” (1986).

≈ marks a conversion by molar mass, not a printed value.

The subject of this experiment is KB. The experiment in a line: Cytotoxicity against human KB cells. It counts as functional.

The compound `CC(=O)O[C@H]1C(=O)[C@]2(C)[C@H](O)C[C@H]3OC[C@@]3(OC(C)=O)[C@H]2[C@H](OC(=O)c2ccccc2)[C@]2(O)C[C@H](OC(=O)[C@H](O)[C@@H](NC(=O)c3ccccc3)c3ccccc3)C(C)=C1C2(C)C` showed an ED50 of 3 ×10⁻⁵ ug/ml.
For `CC(=O)O[C@@]12CO[C@@H]1C[C@H](O)[C@@]1(C)C(=O)C(=O)C3=C(C)[C@@H](OC(=O)[C@H](O)[C@@H](NC(=O)c4ccccc4)c4ccccc4)C[C@@](O)([C@@H](OC(=O)c4ccccc4)[C@H]21)C3(C)C`, for the setting “Homo sapiens, KB, read-out: ED50 (the source's name)”, the EC50 turned out to be 0.02 µg/mL (≈ 0.0247 µM).
The compound `CC(=O)O[C@H]1C(=O)[C@@]2(C)[C@H]([C@H](OC(=O)c3ccccc3)[C@]3(O)C[C@H](OC(=O)[C@H](O)[C@@H](NC(=O)c4ccccc4)c4ccccc4)C(C)=C1C3(C)C)[C@]1(OC(C)=O)CO[C@@H]1C[C@@H]2O` [PACLITAXEL] came in with an ED50 of 1 ×10⁻⁵ ug/ml.
